From patent publication US9045488B2, “PAA nanoparticles for tumor treatment and imaging” (Photolitec, LLC, priority 2012, dated 2015)
Entries after “also recorded” stand apart in the source; their conditions may differ.

Experiments:
Colon 26 cancer cells = experiment: MTT assay, percent survival of Colon 26 cancer cells with/without light treatment; type: cell-based; settings: Colon 26 cells, 24 h incubation, no light or light 0.25-2 Joules; relative to the unconjugated compound
Excerpt: (§1) FIG. 3 is a graph showing percent survival of Colon 26 cancer cells relative to concentration in the form of MTT Assay of compound PS815 vs. PS815 conjugated to PAA nanoparticle vs. PS815 both conjugated and post-loaded on PAA nanoparticle without light treatment.
as §1, with “4” for “3”, “nanoparticles. Light treatment was done at 0.25 Joules following 24 h incubation in Colon 26 cells.” for “nanoparticle without light treatment.”
as §1, with “5” for “3”, “nanoparticles. Light treatment was done at 0.5 Joules following 24 h incubation in Colon 26 cells.” for “nanoparticle without light treatment.”
as §1, with “6” for “3”, “nanoparticles. Light treatment was done at one Joule following 24 h incubation in Colon 26 cells. […]” for “nanoparticle without light treatment.”

COLO-26 tumor = experiment: In vivo fluorescence imaging, Maestro GNIR-Flex, mice with induced COLO-26 tumor; parameters: species or system Balb/c mice; settings: 4-48 hours post i.v. 0.47 mmoles/kg; excitation 575-605 nm, emission 645 nm long pass
Excerpt: The images are color enhanced by computer assignment of color depth relative to fluorescent intensity. Exposure was 100 ms (fluorescence 0 and 8 ms 9 white light). […] The images are color enhanced by computer assignment of color depth relative to fluorescent intensity. […] The images are color enhanced by computer assignment of color depth relative to fluorescent intensity. […] The images are color enhanced by computer assignment of color depth relative to fluorescent intensity.

## 20-carboxyphenyl-2-[1-hexyloxyethyl]-2-devinyl pyropheophorbide-a methyl ester [PS812]
Colon 26 cancer cells
  toxicity to the tumor cells (MTT assay, percent survival), effect of conjugation with nanoparticles: unexpectedly increases toxicity to the cancer cells
COLO-26 tumor
  fluorescent image clarity and definition / fluorescence imaging: unexpectedly superior fluorescent imaging; also recorded: superiority of fluorescence imaging
